Measurements from US20250332154A1, “USE OF NAPHTHOQUINE PHOSPHATE IN PREPARATION OF A MEDICAMENT FOR TREATING AUTOIMMUNE DISEASES” (SHANGHAI PHARMACEUTICALS INDUSTRY CO., LTD, priority 2022, published 2025).
Structures can show the parent of a compound that is named as a salt.

Legend:
[1] = system: IgG; test: IgG secretion by TLRs-L-stimulated purified mouse B cells (ELISA); assay type: cell-based; conditions: B-cell, 120 h, stimulant TLR4-L 10 μg/ml
Procedure: (§1) BALB/c mice were sacrificed by cervical dislocation, and spleens were aseptically excised to prepare spleen lymphocytes. The cells were adjusted to 1×10^8 cells/ml, blocked with 2.4G2 (final concentration: 10 μg/ml) for 20 min, cultured with PE-CD19 (final concentration: 5 μg/ml) for 20 min, washed with MACS buffer, centrifuged at 4° C., 300G for 10 min, 100 μl anti-PE beads were added per 1×10^8 cells, incubated with 900 μl MACS buffer for 15 min, washed with MACS buffer, centrifuged at 4° C., 300G for 10 min. The supernatant was discarded. 500 μl MACS buffer was added per 1×10^8 cells to resuspend the cells. MACS column was used for separation. Magnetically labeled cells were retained on the column. The MACS column was removed from the magnetic field and then eluted.
(§2) A suspension of purified mouse B cells was inoculated into a 96-well plate at 4×10^5/well. Hydroxychloroquine sulfate was diluted with a 2-fold gradient into 3 concentrations, starting from 8 μM: 8, 4 and 2 μM. Naphthoquine phosphate was diluted with a 2-fold gradient into 3 concentrations starting from 0.5 μM.: 0.5, 0.25 and 0.125 μM. […] After the end of the culture, the cell culture supernatants were collected, and the levels of IgG and IgM were measured by ELISA.

[2] = Non-specific cytotoxicity assay (MTT), mouse spleen lymphocytes; assay type: cell-based; conditions: BALB/c, mouse, mouse whole spleen lymphocytes
Procedure: BALB/c mice were sacrificed by cervical dislocation, and spleens were aseptically excised to prepare whole spleen lymphocytes. The cells were adjusted to the required concentration. The compound concentrations started at 250 μM and was diluted with a 4-fold gradient to obtain 10 concentrations: 250, 62.5, 15.625, 3.906, 0.977, 0.244, 0.061, 0.015, 0.004 and 0.001 μM.
A suspension of mouse spleen lymphocytes was inoculated into a 96-well plate at 8×10^5/well, and the above 10 concentration gradients of the compound were added. A corresponding cell control (i.e. spleen lymphocyte culture system without compound) and a RPMI 1640 culture medium background control (blank culture medium control) were set up. The cells were cultured in a 37° C., 5% CO2 incubator for 48 hours. Four hours before the end of the culture, 20 μl of 5 mg/ml MTT solution was added, and the reaction continued until the end of the culture (i.e. the aforementioned 48 hours). The supernatant was aspirated and discarded, 200 μl DMSO was added to each well to dissolve the crystals. […]. The absorbance value was measured at […] with a microplate reader (Spectra Max 190, Molecular Devices).

[3] = system: IgM; test: IgM secretion by TLRs-L-stimulated purified mouse B cells (ELISA); assay type: cell-based; conditions: B-cell, 120 h, stimulant TLR4-L 10 μg/ml
Procedure: as §1, §2

[4] = Cytotoxicity (CC50) on mouse whole spleen lymphocytes, Example 3; assay type: cell-based; conditions: BALB/c; mouse whole spleen lymphocytes (Tables 3 and 4)
Procedure: (§3) BALB/c mice were sacrificed by cervical dislocation, and spleens were aseptically excised to prepare whole spleen lymphocytes. The cells were adjusted to 5×10^6 cells/ml. Hydroxychloroquine sulfate was diluted with a 3-fold gradient into 3 concentrations starting from 30 μM: 30, 10 and 3 μM; naphthoquine phosphate was diluted with a 3-fold gradient into 3 concentrations starting from 10 μM: 10, 3 and 1 μM.

[5] = system: mouse whole spleen lymphocytes; test: TLRs-L-stimulated proliferation of mouse whole spleen lymphocytes (3H-TdR); assay type: cell-based; conditions: for IC50: Mus musculus, Lymphocyte, 48 h
Procedure: as §3
A suspension of mouse spleen lymphocytes was inoculated into a 96-well plate at […], and the stimulant TLR4-L (final concentration: 10 μg/ml), TLR7-L (final concentration: 5 μg/ml) or TLR9-L (final concentration: 1 μM) and compounds diluted with the above concentration gradients were added. A corresponding stimulation control and a cell control (without stimulation) were set up. The cells were cultured in a 37° C., 5% CO2 incubator for 48 hours. Eight hours before the end of culture, ^3H-TdR was added, and the culture continued until the end of the experiment. The cells were collected onto glass fiber membranes using a cell collector. 5 ml scintillation fluid was added, and the values of radioactive counts per minute were read on a Beta counter (2450 Microplate Counter, PerkinElmer).

[6] = system: IgG; test: IgG secretion by TLRs-L-stimulated mouse whole spleen lymphocytes (ELISA); assay type: cell-based; conditions: Lymphocyte, 120 h
Procedure: as §3
(§4) Mouse spleen lymphocytes were inoculated into a 96-well plate at 100 μl/well, and the stimulant TLR4-L (final concentration: 10 μg/ml), TLR7-L (final concentration: 5 μg/ml) or TLR9-L (final concentration: 1 μM) and the compounds diluted with the above concentration gradients were added. A corresponding stimulation control and a cell control (without stimulation) were set up. The cells were cultured in a 37° C., 5% CO2 incubator for 120 hours. After the end of the culture, the cell culture supernatants were collected, and the levels of IgG and IgM were measured by ELISA.

[7] = system: IgM; test: IgM secretion by TLRs-L-stimulated mouse whole spleen lymphocytes (ELISA); assay type: cell-based; conditions: Lymphocyte, 120 h
Procedure: as §3, §4

[8] = system: TNF-α; test: TNF-α production by LPS-induced RAW264.7 cells (ELISA); assay type: cell-based, mouse; conditions: for production of TNF-α: LPS-induced RAW264.7, in words; for IC50: Mus musculus, LPS 10 μg/ml, RAW264.7
Procedure: (§5) RAW264.7 cells were inoculated into a 96-well plate at 1×10^5/well and allowed to adhere to the wall for 6 hours in a 37° C., 5% CO2 incubator. […] After the cells adhered to the wall, the stimulant LPS (final concentration: 10 μg/ml) and the gradient-diluted compounds were added. A corresponding stimulation control and a cell control (without stimulation) were set up. After the end of the culture, the cell culture supernatants were collected, and the levels of TNF-α, IL-1β and IL-6 were measured by ELISA.

[9] = system: IL-1β; test: IL-1β production by LPS-induced RAW264.7 cells (ELISA); assay type: cell-based, mouse; conditions: for IC50: Mus musculus, LPS 10 μg/ml, RAW264.7, read-out: IB-1β IC50; for production of LPS-induced IL-1β: RAW264.7, in words
Procedure: as §5

Row | Compound | IC50 [1] | CC50 at 48 h [2] | IC50 [3] | CC50 [4] | IC50 ([5]; stimulant TLR4-L 10 μg/ml) | IC50 ([5]; stimulant TLR7-L 5 μg/ml) | IC50 ([5]; stimulant TLR9-L 1 μM) | IC50 ([6]; stimulant TLR4-L 10 μg/ml) | IC50 ([6]; stimulant TLR7-L 5 μg/ml) | IC50 ([6]; stimulant TLR9-L 1 μM) | IC50 ([7]; stimulant TLR4-L 10 μg/ml) | IC50 ([7]; stimulant TLR7-L 5 μg/ml) | IC50 ([7]; stimulant TLR9-L 1 μM) | production of TNF-α [8] | IC50 [8] | IC50 [9] | production of LPS-induced IL-1β [9] | proliferation and cytokine and antibody secretion mediated by specific TLRs-L ([5]; mouse whole spleen lymphocytes, in words)
1 | CCN(CCO)CCCC(C)Nc1ccnc2cc(Cl)ccc12 (centres unmarked) [Hydroxychloroquine Sulfate, hydroxychloroquine sulfate] | > 8 µM | 25.2 µM | > 8 µM | 26.9 µM | 6.61 µM | 18.9 µM | 8.79 µM | 18.2 µM | 26.9 µM | 5.63 µM | 25.3 µM | 19.2 µM | 2.51 µM | no significant effect | 46.3 µM | 3.5 µM | significantly inhibited | –
2 | CC(C)(C)NCc1cc(Nc2ccnc3cc(Cl)ccc23)c2c(c1O)CCCC2.O=P(O)(O)O.O=P(O)(O)O [Naphthoquine Phosphate, Naphthoquine phosphate] | 0.41 µM | 1.45 µM | 0.21 µM | 1.59 µM | 0.129 µM | 1.05 µM | 0.218 µM | – | – | 0.325 µM | 0.845 µM | – | 2.03 µM | no significant effect | > 10 µM | 1.59 µM | significantly inhibited | significantly inhibited
